{"source": "patent US11478425B2", "about": "“Extended release compositions comprising pyridostigmine” (priority 2017, dated 2022)", "origin": "cited, not measured here", "data": [{"compound": "CN(C)C(=O)Oc1ccc[n+](C)c1", "note": "[pyridostigmine]", "values": [{"measurement": "bioavailability", "setting": "NDA #020414", "value": "10-20%"}, {"measurement": "elimination half-life", "setting": "oral", "value": "3 to 5", "unit": "h"}, {"measurement": "time-to-maximum peak plasma concentration", "setting": "oral", "value": "1 to 2", "unit": "h"}]}]}
